Experimental data: publication PMC11739509, “Transport and inhibition of the sphingosine-1-phosphate exporter SPNS2” (Nature Communications, 2025)

Assays:
[1] = molecular target: T1, SPNS2 (Homo sapiens, UniProt Q8IVW8); assay: S1PR3-coupled S1P export assay in CHO cells; type: cell-based; design: untagged wild type SPNS2 overexpressed with SphK1 in CHO-K1 cells
T1 sequence (Q8IVW8 1-549): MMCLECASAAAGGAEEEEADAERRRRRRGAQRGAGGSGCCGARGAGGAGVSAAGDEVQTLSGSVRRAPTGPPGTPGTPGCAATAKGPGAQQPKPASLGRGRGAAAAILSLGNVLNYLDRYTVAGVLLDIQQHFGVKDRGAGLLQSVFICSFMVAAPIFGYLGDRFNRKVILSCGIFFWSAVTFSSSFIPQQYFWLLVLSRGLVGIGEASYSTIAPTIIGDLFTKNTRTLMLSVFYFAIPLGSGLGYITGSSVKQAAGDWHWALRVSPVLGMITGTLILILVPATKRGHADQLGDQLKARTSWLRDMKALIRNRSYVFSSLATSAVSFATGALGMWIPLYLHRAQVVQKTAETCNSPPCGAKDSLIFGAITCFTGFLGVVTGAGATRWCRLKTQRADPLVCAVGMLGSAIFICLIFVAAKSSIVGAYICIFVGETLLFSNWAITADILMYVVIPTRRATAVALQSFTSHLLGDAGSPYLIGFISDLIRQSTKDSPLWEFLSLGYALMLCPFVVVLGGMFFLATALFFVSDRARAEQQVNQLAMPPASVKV

[2] = molecular target: T1, SPNS2; assay: S1PR3-coupled S1P export assay; R200S mutant inactive; type: cell-based; design: untagged wild type SPNS2 overexpressed with SphK1 in CHO-K1 cells
[3] = molecular target: T1, SPNS2; assay: cryo-EM structure at […] Å (detergent modeled as dodecyl glucoside; mixture of DDM and S1P not excluded); type: binding; design: full-length human SPNS2; residues 1-99, 287-296 and 352-358 not resolved; with nanobody NbD12
[4] = molecular target: T2, Biotinylated SPNS2 (full-length, codon-optimized, C-terminal AVI and Flag tag) (Homo sapiens, UniProt Q8IVW8, biotin (AVI tag, BirA co-expressed)); assay: SPR; Biacore 8K; biotinylated SPNS2 immobilised on SA sensor chip (600 to 800 RU); nanobody series 0 to 1 or 10 uM injected; 20 mM HEPES pH 7.5, 150 mM NaCl, 0.026% DDM, 0.01% fatty acid free BSA; 25 °C; 1:1 interaction model; details: both partners purified
T2 construct: SPNS2, full-length codon-optimized, in the in-house baculovirus vector pD-INS3; The species is not repeated in the paragraph on this construct; also called Biotinylated SPNS2 protein; source: Sf9 cells co-infected with SPNS2 and BirA baculovirus, biotin in the medium; purified in DDM or LMNG (Anti-Flag M2 resin, SEC); not shown: AVI, C-terminal, kept

**Q.** How did the IC50 [1] turn out when `CCCCCCCCCCc1ccc2nc(NC[C@H]3CCNC3)oc2c1` [33p, 6-decyl-N-[[(3S)-pyrrolidin-3-yl]methyl]-1,3-benzoxazol-2-amine] was run?
**A.** 1900 ± 320 nM

**Q.** How did the “S1PR3-coupled S1P export assay; R200S mutant inactive” value [2] turn out when `CCCCCCCCCCCCC/C=C/[C@@H](O)[C@@H](N)COP(=O)(O)O` [Sphingosine-1-phosphate] was run?
**A.** Validating this assay, the SPNS2 mutation R200S shows no S1P transport activity

**Q.** With `CCCCCCCCCCCCO[C@@H]1O[C@H](CO)[C@@H](O[C@H]2O[C@H](CO)[C@@H](O)[C@H](O)[C@H]2O)[C@H](O)[C@H]1O` [n-dodecyl-β-D-maltopyranoside] as the molecule, how does the “cryo-EM structure at 3.7 Å (detergent modeled as dodecyl glucoside); mixture of D” value [3] read?
**A.** the unknown density fits the acyl chain and first glucose of n-dodecyl-β-D-maltopyranoside

B1: Nanobody D12 (NbD12) (VHH)
VHH: QVQLVESGGGLVQAGGSLRLSCAASGRLLSWYDMAWFRQAPGKEREFVAAVTSTGAGTHYVDSVKGRFTISRVNAKNTMYLQMNSLKPEDTAVYYCAAANTRLTALSLRTTTGSWAYWGKGTPVTVSS
notes: Raised by immunising alpacas with SPNS2 and selected by phage display; Subcloned into pBXNP (Addgene 110098) modified to carry a 1x FLAG tag upstream of the 10x His tag; The FLAG tag is used for capture and detection in the co-IP and the immunofluorescence; source: E. coli MC1061 periplasm, purified
**Q.** How did the Kd [4] turn out when B1 was run?
**A.** 7.75 nM
